In US11578077B2, “Spiro-oxazolones” (Hoffmann-La Roche Inc., priority 2013, dated 2023):

biological target: human V1a receptor (Homo sapiens (Human), UniProt P37288); assay: human V1a receptor binding studies (3H-Vasopressin, SPA beads); settings: membranes of HEK293 cells transiently transfected with human V1a receptor, Ki by Cheng-Prusoff
Method: The human V1a receptor was cloned by RT-PCR from total human liver RNA. The coding sequence was subcloned in an expression vector after sequencing to confirm the identity of the amplified sequence. […] Cell membranes were prepared from HEK293 cells transiently transfected with the expression vector and grown in 20 liter fermenters with the following protocol.
50 g of cells are re-suspended in 30 ml freshly prepared ice cold Lysis buffer ([…] HEPES. 1 mM EDTA, 10 mM MgCl2 adjusted to pH=7.4+complete cocktail of protease inhibitor (Roche Diagnostics)). Homogenized with Polytron for 1 min and sonicated on ice for 2×2 minutes at 80% intensity (Vibracell sonicator). The preparation is centrifuged 20 min at 500 g at 4° C., the pellet is discarded and the supernatant centrifuged 1 hour at 43'000 g at 4° C. (19'000 rpm). The pellet is re-suspended in 12.5 ml Lysis buffer+12.5 ml Sucrose 20% and homogenized using a Polytron for 1-2 min. The protein concentration is determined by the Bradford method and aliquots are stored at −80° C. until use. For binding studies 60 mg Yttrium silicate SPA beads (Amersham) are mixed with an aliquot of membrane in binding buffer (50 mM Tris, 120 mM NaCl, 5 mM KCl, 2 mM CaCl2, 10 mM MgCl) for 15 minutes with mixing. 50 μl of bead/membrane mixture is then added to each well of a 96 well plate, followed by […] of 4 nM 3H-Vasopressin (American Radiolabeled Chemicals). For total binding measurement 100 μl of binding buffer are added to the respective wells, for non-specific binding 100 μl of […] cold vasopressin and for compound testing 100 μl of a serial dilution of each compound in 2% DMSO. The plate is incubated 1 h at room temperature, centrifuged 1 min at 1000 g and counted on a Packard Top-Count. Non-specific binding counts are subtracted from each well and data is normalized to the maximum specific binding set at 100%. To calculate an IC 50 the curve is fitted using a non-linear regression model (XLfit) and the Ki is calculated using the Cheng-Prussoff equation.

Chain of human V1a receptor (P37288 whole entry): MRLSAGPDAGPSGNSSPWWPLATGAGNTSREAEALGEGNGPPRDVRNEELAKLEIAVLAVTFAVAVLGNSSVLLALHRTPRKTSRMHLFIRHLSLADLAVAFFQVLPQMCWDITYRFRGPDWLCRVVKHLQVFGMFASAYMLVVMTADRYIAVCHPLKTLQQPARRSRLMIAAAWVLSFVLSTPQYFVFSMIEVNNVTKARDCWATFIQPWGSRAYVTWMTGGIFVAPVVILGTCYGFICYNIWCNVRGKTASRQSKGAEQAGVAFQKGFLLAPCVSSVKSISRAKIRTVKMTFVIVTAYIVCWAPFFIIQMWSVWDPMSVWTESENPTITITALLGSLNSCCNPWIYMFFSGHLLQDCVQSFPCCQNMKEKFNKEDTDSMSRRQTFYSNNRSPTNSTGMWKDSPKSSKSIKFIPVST

Point of comparison: `O=C1OC2(CCN(C3=NC(=O)C4(Cc5ccc(O)cc5C4)O3)CC2)c2ccccc21` (centres unmarked) [Example 28, 1′-(5-hydroxy-4′-oxo-1,3-dihydro-4′H-spiro[indene-2,5′-[1,3]oxazol]-2′-yl)-3H-spiro[2-benzofuran-1,4′-piperidin]-3-one], “pKi hV1a” value 8.4. Against it:
- C[Si](C)(C)c1ccc2c(c1)CC1(C2)OC(N2CCC3(CC2)OCc2ccccc23)=NC1=O (centres unmarked) [Example 29, 2′-(1′H,3H-spiro[2-benzofuran-1,4′-piperidin]-1′-yl)-5-(trimethylsilyl)-1,3-dihydro-4′H-spiro[indene-2,5′-[1,3]oxazol]-4′-one] — lower, 6.2
- O=C1N=C(N2CCC3(CC2)OCc2ccccc23)OC12Cc1ccc(F)cc1C2 (centres unmarked) [Example 30, 5-fluoro-2′-(1′H,3H-spiro[2-benzofuran-1,4′-piperidin]-1′-yl)-1,3-dihydro-4′H-spiro[indene-2,5′-[1,3]oxazol]-4′-one] — higher, 9.0
- COc1cc2c(cc1OC)CC1(C2)OC(N2CCC3(CC2)OC(=O)c2ccccc23)=NC1=O [Example 32, 1′-(5,6-dimethoxy-4′-oxo-1,3-dihydro-4′H-spiro[indene-2,5′-[1,3]oxazol)-2′-yl)-3H-spiro[2-benzofuran-1,4′-piperidin]-3-one] — lower, 6.4
- O=C1OC2(CCN(C3=NC(=O)C4(Cc5cc(O)c(O)cc5C4)O3)CC2)c2ccccc21 [Example 33, 1′-(5,6-dihydroxy-4′-oxo-1,3-dihydro-4′H-spiro[indene-2,5′-[1,3]oxazol]-2′-yl)-3H-spiro[2-benzofuran-1,4′-piperidin]-3-one] — lower, 6.7
- O=C1N=C(N2CCC3(CC2)OCc2ccccc23)OC12Cc1cc(F)c(F)cc1C2 [Example 34, 5,6-difluoro-2′-(1′H,3H-spiro[2-benzofuran-1,4′-piperidin]-1′-yl)-1,3-dihydro-4′H-spiro[indene-2,5′-[1,3]oxazol]-4′-one] — higher, 9.4
- O=C1OC2(CCN(C3=NC(=O)C4(Cc5cc(F)c(F)cc5C4)O3)CC2)c2ccccc21 [Example 35, 1′-(5,6-difluoro-4′-oxo-1,3-dihydro-4′H-spiro[indene-2,5′-[1,3]oxazol]-2′-yl)-3H-spiro[2-benzofuran-1,4′-piperidin]-3-one] — higher, 8.9
- O=C1N=C(N2CCC3(CC2)OCc2cccnc23)OC12Cc1ccccc1C2 [Example 36, 2′-(1′H,5H-spiro[furo[3,4-b]pyridine-7,4′-piperidin]-1′-yl)-1,3-dihydro-4′H-spiro[indene-2,5′-[1,3]oxazol]-4′-one] — higher, 8.6
- O=C1N=C(N2CCC3(CC2)OCc2ncccc23)OC12Cc1ccccc1C2 [Example 37, 2′-(1′H,7H-spiro[furo[3,4-b]pyridine-5,4′-piperidin]-1′-yl)-1,3-dihydro-4′H-spiro[indene-2,5′-[1,3]oxazol]-4′-one] — lower, 8.0
- CC1(C)OC2(CCN(C3=NC(=O)C4(Cc5ccccc5C4)O3)CC2)c2ncccc21 [Example 38, 2′-(5,5-dimethyl-1′H,5H-spiro[furo[3,4-b]pyridine-7,4′-piperidin]-1′-yl)-1,3-dihydro-4′H-spiro[indene-2,5′-[1,3]oxazol]-4′-one] — higher, 9.2
- CC1(C)OC2(CCN(C3=NC(=O)C4(Cc5ccccc5C4)O3)CC2)c2cccnc21 [Example 39, 2′-(7,7-dimethyl-1′H,7H-spiro[furo[3,4-b]pyridine-5,4′-piperidin]-1′-yl)-1,3-dihydro-4′H-spiro[indene-2,5′-[1,3]oxazol]-4′-one] — higher, 9.1
- COc1ccc2c(c1)CC1(C2)OC(N2CCC3(CC2)OC(C)(C)c2ncccc23)=NC1=O (centres unmarked) [Example 40, 2′-(7,7-dimethyl-1′H,7H-spiro[furo[3,4-b]pyridine-5,4′-piperidin]-1′-yl)-5-methoxy-1,3-dihydro-4′H-spiro[indene-2,5′-[1,3]oxazol]-4′-one] — within 0.2 log units, 8.3
- CC1(C)OC2(CCN(C3=NC(=O)C4(Cc5ccc(O)cc5C4)O3)CC2)c2cccnc21 (centres unmarked) [Example 41, 2′-(7,7-dimethyl-1′H,7H-spiro[furo[3,4-b]pyridine-5,4′-piperidin]-1′-yl)-5-hydroxy-1,3-dihydro-4′H-spiro[indene-2,5′-[1,3]oxazol]-4′-one] — higher, 8.9
- Cc1ccc2c(n1)C1(CCN(C3=NC(=O)C4(Cc5ccccc5C4)O3)CC1)OC2 [Example 42, 2′-(2-methyl-1′H,5H-spiro[furo[3,4-b]pyridine-7,4′-piperidin]-1′-yl)-1,3-dihydro-4′H-spiro[indene-2,5′-[1,3]oxazol]-4′-one] — higher, 9.1
- Cc1ccc2c(n1)C1(CCN(C3=NC(=O)C4(Cc5ccccc5C4)O3)CC1)OC2=O [Example 43, 2-methyl-1′-(4′-oxo-1,3-dihydro-4′H-spiro[indene-2,5′-[1,3]oxazol]-2′-yl)-5H-spiro[furo[3,4-b]pyridine-7,4′-piperidin]-5-one] — within 0.2 log units, 8.3
- Cc1cnc2c(c1)COC21CCN(C2=NC(=O)C3(Cc4ccccc4C3)O2)CC1 [Example 44, 2′-(3-methyl-1′H,5H-spiro[furo[3,4-b]pyridine-7,4′-piperidin]-1′-yl)-1,3-dihydro-4′H-spiro[indene-2,5′-[1,3]oxazol]-4′-one] — higher, 8.7
- Cc1cnc2c(c1)C(=O)OC21CCN(C2=NC(=O)C3(Cc4ccccc4C3)O2)CC1 [Example 45, 3-methyl-1′-(4′-oxo-1,3-dihydro-4′H-spiro[indene-2,5′-[1,3]oxazol]-2′-yl)-5H-spiro[furo[3,4-b]pyridine-7,4′-piperidin]-5-one] — lower, 7.6
- Cc1ccc2c(n1)COC21CCN(C2=NC(=O)C3(Cc4ccccc4C3)O2)CC1 [Example 48, 2′-(2-methyl-1′H,7H-spiro[furo[3,4-b]pyridine-5,4′-piperidin]-1′-yl)-1,3-dihydro-4′H-spiro[indene-2,5′-[1,3]oxazol]-4′-one] — lower, 7.9
- Cc1ccc2c(n1)C(=O)OC21CCN(C2=NC(=O)C3(Cc4ccccc4C3)O2)CC1 [Example 49, 2-methyl-1′-(4′-oxo-1,3-dihydro-4′H-spiro[indene-2,5′-[1,3]oxazol]-2′-yl)-7H-spiro[furo[3,4-b]pyridine-5,4′-piperidin]-7-one] — lower, 7.0
- Cc1cnc2c(c1)C1(CCN(C3=NC(=O)C4(Cc5ccccc5C4)O3)CC1)OC2 [Example 52, 2′-(3-methyl-1′H,7H-spiro[furo[3,4-b]pyridine-5,4′-piperidin]-1′-yl)-1,3-dihydro-4′H-spiro[indene-2,5′-[1,3]oxazol]-4′-one] — within 0.2 log units, 8.3
- Cc1cnc2c(c1)C1(CCN(C3=NC(=O)C4(Cc5ccccc5C4)O3)CC1)OC2=O [Example 53, 3-methyl-1′-(4′-oxo-1,3-dihydro-4′H-spiro[indene-2,5′-[1,3]oxazol]-2′-yl)-7H-spiro[furo[3,4-b]pyridine-5,4′-piperidin]-7-one] — lower, 7.4
- O=C1OC2(CCN(C3=NC(=O)C4(Cc5ccccc5C4)O3)CC2)c2cnc(Cl)cc21 [Example 54, 6-chloro-1′-(4′-oxo-1,3-dihydro-4′H-spiro[indene-2,5′-[1,3]oxazol]-2′-yl)-1H-spiro[furo[3,4-c]pyridine-3,4′-piperidin]-1-one] — lower, 7.4
- O=C1OC2(CCN(C3=NC(=O)C4(Cc5ccccc5C4)O3)CC2)c2c1ccnc2Cl [Example 55, 4-chloro-1′-(4-oxo-1,3-dihydro-4′H-spiro[indene-2,5′-[1,3]oxazol]-2′-yl)-1H-spiro[furo[3,4-c]pyridine-3,4′-piperidin]-1-one] — lower, 6.5
- O=C1N=C(N2CCC3(CC2)OCc2ccccc23)OC12Cc1cccnc1C2 (centres unmarked) [Example 56, 2′-(1′H,3H-spiro[2-benzofuran-1,4′-piperidin]-1′-yl)-5,7-dihydro-4′H-spiro[cyclopenta[b]pyridine-6,5′-[1,3]oxazol]-4′-one] — lower, 8.2
- O=C1N=C(N2CCC3(CC2)OCc2ccccc23)OC12Cc1cnc(CCl)cc1C2 (centres unmarked) [Example 57, 3-(chloromethyl)-2′-(1′H,3H-spiro[2-benzofuran-1,4′-piperidin]-1′-yl)-5,7-dihydro-4′H-spiro[cyclopenta[c]pyridine-6,5′-[1,3]oxazol]-4′-one] — lower, 6.3
- Cc1cc2c(cn1)CC1(C2)OC(N2CCC3(CC2)OCc2ccccc23)=NC1=O (centres unmarked) [Example 58, 3-methyl-2′-(1′H,3H-spiro[2-benzofuran-1,4′-piperidin]-1′-yl)-5,7-dihydro-4′H-spiro[cyclopenta[c]pyridine-6,5′-[1,3]oxazol]-4′-one] — lower, 7.7
